Measurements as given in PubChem BioAssay (NCI).
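Tested at 5 concentrations; 48 h exposure; 96-well plates; endpoints linearly interpolated, else capped at highest concentration. TGI denotes the concentration required for complete inhibition of growth.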

Experiments:
Assay in all cases: DTP human tumour cell line panel, 48 h
[1] = system: BT-549 breast
[2] = system: MDA-MB-231 breast
[3] = system: NCI/ADR-RES ovarian
[4] = system: U251 CNS
[5] = system: UACC-257 melanoma
[6] = system: HS 578T breast
[7] = system: DLD-1 colon
[8] = system: M19-MEL melanoma

In the case of `CCCCCCCC/C=C/CCCCCCCC1CC(O)C(=O)O1` (configuration not stated), the TGI [1] is reported as > 100 µM, the TGI [2] is reported as > 100 µM and the TGI [3] is reported as > 100 µM. For the same compound, the TGI [4] was > 100 µM and the TGI [5] was > 100 µM.
With `COc1cc(/C=C(\C#N)c2ccccn2)cc(Br)c1O` the TGI [1] was > 100 µM, the TGI [3] was 75 µM and the TGI [4] was > 100 µM. The TGI [5] was > 100 µM.
For `CC(C)(C)NC1C2CCC(C)(C1O)C2(C)C` (configuration not stated), the TGI [1] was > 100 µM, the TGI [2] was > 100 µM and the TGI [3] was > 100 µM. The TGI [4] was > 100 µM and the TGI [5] was > 100 µM.
With `N/N=C(\C(=O)Nc1ccc([N+](=O)[O-])cc1)C(C1=Nc2cc([N+](=O)[O-])ccc2NC1)[N+](=O)[O-]` (configuration not stated) the TGI [1] was > 100 µM, the TGI [6] was > 100 µM and the TGI [2] was > 100 µM. For the same compound, the TGI [3] was > 100 µM, the TGI [4] was > 100 µM and the TGI [5] was > 100 µM.
With `CC1(C)C2CCC1(CC(=O)O)C(Cl)C2` (configuration not stated) the TGI [1] was > 100 µM, the TGI [6] was > 100 µM and the TGI [2] was > 100 µM. For the same compound, the TGI [3] was > 100 µM, the TGI [4] was > 100 µM and the TGI [5] was > 100 µM.
With `Cc1cccc(NC(=S)N/N=C(/c2ccccc2)c2ccccn2)c1` the TGI [1] was 17 µM, the TGI [6] was 76.1 µM and the TGI [2] was 6.73 µM. For the same compound, the TGI [3] was 6.63 µM, the TGI [4] was 12.5 µM and the TGI [5] was 1.57 µM.
For `C=C(C(=O)O)[C@@H]1C[C@@H]2O[C@H]1CC(C)=CCC/C(C)=C/CC[C@@]2(C)O`, the TGI [1] was > 100 µM, the TGI [6] was > 100 µM and the TGI [2] was > 100 µM. The TGI [3] was > 100 µM, the TGI [4] was > 100 µM and the TGI [5] was > 100 µM.
With `COC(Cc1ccccc1)NC(C)=O` (configuration not stated) the TGI [1] was > 100 µM, the TGI [6] was > 100 µM and the TGI [2] was > 100 µM. The TGI [3] was > 100 µM, the TGI [4] was > 100 µM and the TGI [5] was > 100 µM.
For `CN1CCN(c2ccc(-n3cc(C(=O)O)c(=O)c4cc(F)c(N5CCN(C)CC5)cc43)nc2)CC1`, the TGI [1] was > 100 µM, the TGI [6] was > 100 µM and the TGI [2] was > 100 µM. The TGI [3] was > 100 µM, the TGI [4] was > 100 µM and the TGI [5] was > 100 µM.
With `CC(=O)O[C@H]1[C@@H](N2CCN(C)CC2)C[C@H]2[C@@H]3CC=C4C[C@@H](N5CCCC5)CC[C@]4(C)[C@H]3CC[C@@]21C` the TGI [1] was > 100 µM, the TGI [6] was > 100 µM and the TGI [2] was > 100 µM. The TGI [3] was > 100 µM, the TGI [4] was > 100 µM and the TGI [5] was 49.4 µM.
In the case of `CCOP(=O)(OCC)/C(C#N)=C/c1c(C)[nH]c2ccccc12`, the TGI [1] is reported as > 100 µM, the TGI [6] is reported as > 100 µM and the TGI [2] is reported as > 100 µM. For the same compound, the TGI [3] was > 100 µM, the TGI [4] was > 100 µM and the TGI [5] was > 100 µM.
With `CCNCCNC(=O)c1ccc(Br)cc1` the TGI [1] was > 100 µM, the TGI [6] was > 100 µM and the TGI [3] was > 100 µM. The TGI [4] was > 100 µM.
With `CC[C@]12C=CCN3CCC4(c5cc([C@@]6(C(=O)OC)CC7CN(CCc8c6[nH]c6ccccc86)C[C@@H]6CCC[C@H]76)c(OC)cc5N(C)C4[C@](O)(C(=O)OC)C1OC(C)=O)C32` (some centres not stated) the TGI [7] was > 10 µM, the TGI [8] was > 10 µM and the TGI [2] was 0.536 µM. For the same compound, the TGI [3] was 4.75 µM, the TGI [4] was > 5.19 µM and the TGI [5] was > 10 µM.
With `CCN(CC)C1=Nc2ccccc2-n2c(C)cnc2C1` the TGI [1] was > 100 µM, the TGI [6] was > 100 µM and the TGI [2] was > 100 µM. For the same compound, the TGI [3] was > 100 µM, the TGI [4] was > 100 µM and the TGI [5] was > 100 µM.
With `Cc1cc2[nH]c3c(C#N)c(-c4ccccc4)c(CN4CCOCC4)c(=O)n3c2cc1C` the TGI [1] was > 100 µM, the TGI [2] was > 100 µM and the TGI [3] was > 100 µM. The TGI [4] was > 100 µM and the TGI [5] was > 100 µM.
In the case of `S=C1SC(c2ccc(Cl)cc2)(c2ccc(Cl)cc2)c2ccccc21`, the TGI [1] is reported as > 100 µM, the TGI [6] is reported as > 100 µM and the TGI [2] is reported as > 100 µM. For the same compound, the TGI [3] was > 100 µM, the TGI [4] was > 100 µM and the TGI [5] was > 100 µM.
In the case of `COC(=O)[C@@H]1C[C@]2(CC=C(C)C)c3ccccc3N(S(=O)(=O)c3ccccc3)[C@@H]2N1C(=O)OC`, the TGI [1] is reported as > 100 µM, the TGI [6] is reported as 66.9 µM and the TGI [2] is reported as > 100 µM. For the same compound, the TGI [3] was 83.1 µM, the TGI [4] was 41.8 µM and the TGI [5] was 51.6 µM.
With `CCn1cnc2c(NC(C)=O)ncnc21` the TGI [1] was > 100 µM, the TGI [2] was > 100 µM and the TGI [3] was > 100 µM. The TGI [4] was > 100 µM and the TGI [5] was > 100 µM.
With `CCCCCC(/C=N/N)C(O)(C(F)(F)F)C(F)(F)F` (configuration not stated) the TGI [1] was 9.27 µM, the TGI [6] was 7.12 µM and the TGI [2] was > 10 µM. For the same compound, the TGI [3] was > 10 µM, the TGI [4] was > 10 µM and the TGI [5] was > 10 µM.
`CP(C)(=S)P(C)(C)=S` was tested, and the TGI [1] was > 100 µM, the TGI [6] was > 100 µM and the TGI [2] was > 100 µM. The TGI [3] was > 100 µM, the TGI [4] was > 100 µM and the TGI [5] was > 100 µM.
In the case of `C[C@]12CCC(=O)C=C1CC[C@@H]1C2CC[C@]2(C)Nc3c(ncn3-c3ccc(F)cc3)CC12` (some centres not stated), the TGI [1] is reported as 59.8 µM, the TGI [6] is reported as 71 µM and the TGI [2] is reported as > 100 µM. The TGI [4] was 95.9 µM and the TGI [5] was 66.2 µM.
With `CC1(C)O[C@@H]2[C@@H]3OC(=O)C[C@@H]3[C@@H](COCc3ccccc3)[C@@H]2O1` the TGI [1] was > 100 µM, the TGI [6] was > 100 µM and the TGI [2] was > 100 µM. For the same compound, the TGI [3] was > 100 µM, the TGI [4] was > 100 µM and the TGI [5] was > 100 µM.
In the case of `CC(=O)OC1COC(Nn2c(=O)[nH]c3ccccc3c2=O)C(OC(C)=O)C1OC(C)=O` (configuration not stated), the TGI [1] is reported as > 100 µM, the TGI [6] is reported as > 100 µM and the TGI [2] is reported as > 100 µM. For the same compound, the TGI [3] was > 100 µM, the TGI [4] was > 100 µM and the TGI [5] was > 100 µM.
With `CCOC1SC(SC)=NN1C(=O)C(OC(C)=O)C(OC(C)=O)C(OC(C)=O)C(OC(C)=O)C(=O)N1N=C(SC)SC1OCC` (configuration not stated) the TGI [1] was > 100 µM, the TGI [6] was 96.2 µM and the TGI [2] was > 100 µM. For the same compound, the TGI [3] was > 100 µM, the TGI [4] was > 100 µM and the TGI [5] was > 100 µM.
In the case of `c1ccc2c(c1)C(=Nc1ccc(N=C3c4ccccc4-c4ccccc43)cc1)c1ccccc1-2`, the TGI [1] is reported as > 100 µM, the TGI [6] is reported as > 100 µM and the TGI [2] is reported as > 100 µM. The TGI [3] was > 100 µM, the TGI [4] was > 100 µM and the TGI [5] was > 100 µM.
With `CN(C(=O)c1cccs1)C(=S)N1CCN(c2ccccc2)CC1` the TGI [1] was > 100 µM, the TGI [6] was > 100 µM and the TGI [2] was > 100 µM. The TGI [4] was > 100 µM and the TGI [5] was > 100 µM.
In the case of `O=C1C[C@H]2[C@H](c3ccc(Br)cc3)[C@H]3C(=O)c4ccccc4NC(=O)[C@@H]3[C@@]2(O)c2ccccc2N1`, the TGI [6] is reported as > 100 µM, the TGI [2] is reported as 36.1 µM and the TGI [3] is reported as 61.9 µM. The TGI [4] was > 100 µM and the TGI [5] was 54.1 µM.
`O=C(O)c1cc(Sc2ccc([N+](=O)[O-])c(C(=O)O)c2)ccc1[N+](=O)[O-]` was tested, and the TGI [1] was > 100 µM, the TGI [6] was > 100 µM and the TGI [2] was > 100 µM. For the same compound, the TGI [3] was > 100 µM, the TGI [4] was > 100 µM and the TGI [5] was > 100 µM.
